BindingDB's records for patent US20250326732 (Pretzel Therapeutics, 2025)

The compounds below were run against DNA-directed RNA polymerase, mitochondrial (Homo sapiens, UniProt O00411) (assay: Biological/Biochemical Evaluation).
Description: The ability of some compounds of the present invention to inhibit POLRMT were determined in a homogeneous TR-FRET Assay using high-throughput screening in a 384-well plate format. […] Detection of the product is facilitated by hybridization of two DNA-oligonucleotide probes to specific and adjacent sequences within the RNA product sequence. Upon annealing of the probes, two fluorophores are coupled directly to an acceptor nucleotide probe (ATTO647, 5′), or introduced via a coupled streptavidin with a biotinylated donor nucleotide probe (Europium cryptate) that is brought into sufficient proximity to serve as a fluorescence-donor-acceptor pair. […] The DNA template is restriction linearized proximal to the promotor 3′-end (pUC-LSP). […] No nucleotide triphosphate mix is added to negative control samples. Microplates with compounds to be tested in the assay are prepared from 10 mM compound stocks in 100% DMSO, equal amounts of DMSO without any compound are added to positive control and negative control samples.

DNA-directed RNA polymerase, mitochondrial, sequence (O00411 whole entry): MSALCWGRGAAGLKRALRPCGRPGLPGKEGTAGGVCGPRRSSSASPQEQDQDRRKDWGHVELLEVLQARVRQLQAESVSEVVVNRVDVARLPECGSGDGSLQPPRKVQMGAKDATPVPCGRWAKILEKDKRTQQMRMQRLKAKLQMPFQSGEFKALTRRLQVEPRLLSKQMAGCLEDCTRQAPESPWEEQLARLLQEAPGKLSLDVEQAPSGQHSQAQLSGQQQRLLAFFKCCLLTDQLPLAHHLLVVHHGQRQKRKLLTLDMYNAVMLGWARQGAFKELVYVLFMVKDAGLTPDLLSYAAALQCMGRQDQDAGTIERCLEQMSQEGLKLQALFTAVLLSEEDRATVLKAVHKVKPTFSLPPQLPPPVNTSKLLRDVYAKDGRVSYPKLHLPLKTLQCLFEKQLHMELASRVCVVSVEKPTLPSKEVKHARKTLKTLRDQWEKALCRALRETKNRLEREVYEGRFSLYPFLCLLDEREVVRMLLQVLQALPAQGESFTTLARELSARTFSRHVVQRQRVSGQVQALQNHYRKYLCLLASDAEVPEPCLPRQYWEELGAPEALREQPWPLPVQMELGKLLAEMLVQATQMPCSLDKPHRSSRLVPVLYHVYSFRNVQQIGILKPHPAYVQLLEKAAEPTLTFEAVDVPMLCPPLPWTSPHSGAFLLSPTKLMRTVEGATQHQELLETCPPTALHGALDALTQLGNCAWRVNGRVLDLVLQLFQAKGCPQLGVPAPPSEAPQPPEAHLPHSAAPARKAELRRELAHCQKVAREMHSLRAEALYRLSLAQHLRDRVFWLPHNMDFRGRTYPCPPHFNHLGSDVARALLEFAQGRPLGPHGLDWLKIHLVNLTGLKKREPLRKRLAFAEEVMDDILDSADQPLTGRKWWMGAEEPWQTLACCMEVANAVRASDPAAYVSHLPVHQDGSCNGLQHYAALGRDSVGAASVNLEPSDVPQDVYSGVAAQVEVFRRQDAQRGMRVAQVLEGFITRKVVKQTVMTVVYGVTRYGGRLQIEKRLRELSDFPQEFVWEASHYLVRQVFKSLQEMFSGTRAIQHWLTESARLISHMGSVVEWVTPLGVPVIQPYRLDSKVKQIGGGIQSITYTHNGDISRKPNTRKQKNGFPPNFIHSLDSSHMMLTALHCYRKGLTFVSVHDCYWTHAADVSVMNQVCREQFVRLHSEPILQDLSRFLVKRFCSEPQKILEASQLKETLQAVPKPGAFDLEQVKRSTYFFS

Q: For CC(=Cc1ccc2c(-c3ccccc3C)cc(=O)oc2c1)C(=O)N(C)C [US20250326732, Example 64], which IC50 is on record?
A: Its IC50 is 0.3 µM.

Q: For CC(=Cc1ccc2c(-c3ccccc3C)cc(=O)oc2c1)C(=O)N(C)C [US20250326732, Example 65], which IC50 is on record?
A: The IC50 was 17 µM.

Q: Which IC50 does the source give for CNC(=O)C(C)=Cc1ccc2c(-c3ccccc3C)cc(=O)oc2c1 [US20250326732, Example 66] here?
A: Its IC50 is 0.5 µM.

Q: Which IC50 does the source give for CNC(=O)C(C)=Cc1ccc2c(-c3ccccc3C)cc(=O)oc2c1 [US20250326732, Example 67] here?
A: The IC50 was 6 µM.

Q: With CC(=Cc1ccc2c(-c3ccccc3C)cc(=O)oc2c1)C(N)=O [US20250326732, Example 68] as the compound, how does the IC50 read?
A: The IC50 was 0.6 µM.

Q: With CN(C=CC(N)=O)c1ccc2c(-c3ccc(F)cc3Cl)cc(=O)oc2c1 [US20250326732, Example 137] as the compound, how does the IC50 read?
A: The IC50 was 0.9 µM.

Q: For C=C(Nc1ccc2c(-c3ccccc3C)cc(=O)oc2c1)C(N)=O [US20250326732, Example 189], which IC50 is on record?
A: Its IC50 is 0.9 µM.

Q: For COC=C(Nc1ccc2c(-c3ccccc3)cc(=O)oc2c1)C(N)=O [US20250326732, Example 198], which IC50 is on record?
A: The IC50 was 2 µM.

Q: For COC=C(Cc1ccc2c(-c3ccccc3C)cc(=O)oc2c1)C(N)=O [US20250326732, Example 207], which IC50 is on record?
A: The IC50 was 17 µM.

Q: How did the IC50 turn out when COC=C(Cc1ccc2c(-c3ccccc3C)cc(=O)oc2c1)C(N)=O [US20250326732, Example 208] was run?
A: Its IC50 is 3 µM.
